Species on record: Rattus norvegicus
Test: DrugMatrix - Regimen: Daily Repeat
Format: toxicity, organism-based, Sprague-Dawley
Set-up: regimen Daily Repeat, gender Male, age 6-8 weeks
Conditions: in vivo, po, route oral GAVAGE, vehicle .5 % CMC; for BASOPHIL / EOSINOPHIL / ERYTHROCYTE COUNT / HEMATOCRIT / HEMOGLOBIN / LEUKOCYTE COUNT / LYMPHOCYTE / MEAN CORPUSCULAR HEMOGLOBIN / MEAN CORPUSCULAR HEMOGLOBIN CONCENTRATION / MEAN CORPUSCULAR VOLUME / MONOCYTE / NEUTROPHIL / PLATELET COUNT: tissue Blood; for ALANINE AMINOTRANSFERASE / ALBUMIN / ALKALINE PHOSPHATASE / ASPARTATE AMINOTRANSFERASE / BLOOD UREA NITROGEN / CHLORIDE / CHOLESTEROL / CREATINE PHOSPHOKINASE / CREATININE / GLUCOSE / PHOSPHORUS / POTASSIUM / SODIUM / TOTAL BILIRUBIN / TOTAL PROTEIN: tissue Plasma
[1] = 0 mg/kg, 72 h, dose level Control, time 3 day
[2] = 0 mg/kg, 120 h, dose level Control, time 5 day
[3] = 0.09 mg/kg, 72 h, dose level Low, time 3 day
[4] = 0.09 mg/kg, 120 h, dose level Low, time 5 day
[5] = 0.9 mg/kg, 72 h, dose level High, time 3 day
[6] = 0.9 mg/kg, 120 h, dose level High, time 5 day

## CCN1C[C@]2(COC)[C@H](O)C[C@H](OC)[C@@]34[C@@H]5C[C@@]6(O)[C@H](OC(=O)c7ccccc7)[C@@H]5[C@@](OC(C)=O)([C@@H]([C@H](OC)[C@H]23)[C@@H]14)[C@@H](O)[C@@H]6OC [ACONITINE]
[1]
  BASOPHIL: 0.68%
  EOSINOPHIL: 0.46%
  ERYTHROCYTE COUNT: 7.15 x10E6/uL
  HEMATOCRIT: 45.44%
  HEMOGLOBIN: 14.1 G/DL
  LEUKOCYTE COUNT: 9.78 x10E3/uL
  LYMPHOCYTE: 84.44%
  MEAN CORPUSCULAR HEMOGLOBIN: 19.72 pg
  MEAN CORPUSCULAR HEMOGLOBIN CONCENTRATION: 31 G/DL
  MEAN CORPUSCULAR VOLUME: 63.66 fL
  MONOCYTE: 2.14%
  NEUTROPHIL: 11.16%
  PLATELET COUNT: 1378.2 x10E3/uL
  ALANINE AMINOTRANSFERASE: 42.33 u/L
  ALBUMIN: 3.8 G/DL
  ALKALINE PHOSPHATASE: 388.17 u/L
  ASPARTATE AMINOTRANSFERASE: 68 u/L
  BLOOD UREA NITROGEN: 16.17 mg/dL
  CHLORIDE: 96.67 MEQ/L
  CHOLESTEROL: 71 mg/dL
  CREATINE PHOSPHOKINASE: 156.17 u/L
  CREATININE: 0.57 mg/dL
  GLUCOSE: 193.67 mg/dL
  PHOSPHORUS: 11.43 mg/dL
  POTASSIUM: 7 MEQ/L
  SODIUM: 140.33 MEQ/L
  TOTAL BILIRUBIN: 0.48 mg/dL
  TOTAL PROTEIN: 6.8 G/DL
[2]
  BASOPHIL: 1.47%
  EOSINOPHIL: 1%
  ERYTHROCYTE COUNT: 7.12 x10E6/uL
  HEMATOCRIT: 45.47%
  HEMOGLOBIN: 14.1 G/DL
  LEUKOCYTE COUNT: 11.38 x10E3/uL
  LYMPHOCYTE: 82.57%
  MEAN CORPUSCULAR HEMOGLOBIN: 19.82 pg
  MEAN CORPUSCULAR HEMOGLOBIN CONCENTRATION: 31.02 G/DL
  MEAN CORPUSCULAR VOLUME: 63.88 fL
  MONOCYTE: 2.2%
  NEUTROPHIL: 11.97%
  PLATELET COUNT: 1267 x10E3/uL
  ALANINE AMINOTRANSFERASE: 38 u/L
  ALBUMIN: 3.72 G/DL
  ALKALINE PHOSPHATASE: 391 u/L
  ASPARTATE AMINOTRANSFERASE: 65.83 u/L
  BLOOD UREA NITROGEN: 14.17 mg/dL
  CHLORIDE: 107.67 MEQ/L
  CHOLESTEROL: 61 mg/dL
  CREATINE PHOSPHOKINASE: 148.33 u/L
  CREATININE: 0.57 mg/dL
  GLUCOSE: 177.17 mg/dL
  PHOSPHORUS: 12.07 mg/dL
  POTASSIUM: 7.2 MEQ/L
  SODIUM: 151.5 MEQ/L
  TOTAL BILIRUBIN: 0.58 mg/dL
  TOTAL PROTEIN: 6.72 G/DL
[3]
  BASOPHIL: 0.43%
  EOSINOPHIL: 0.4%
  ERYTHROCYTE COUNT: 7.13 x10E6/uL
  HEMATOCRIT: 45.67%
  HEMOGLOBIN: 14.3 G/DL
  LEUKOCYTE COUNT: 11.21 x10E3/uL
  LYMPHOCYTE: 84.83%
  MEAN CORPUSCULAR HEMOGLOBIN: 20.07 pg
  MEAN CORPUSCULAR HEMOGLOBIN CONCENTRATION: 31.3 G/DL
  MEAN CORPUSCULAR VOLUME: 64.07 fL
  MONOCYTE: 2.23%
  NEUTROPHIL: 11.1%
  PLATELET COUNT: 1445.33 x10E3/uL
  ALANINE AMINOTRANSFERASE: 31.33 u/L
  ALBUMIN: 3.93 G/DL
  ALKALINE PHOSPHATASE: 342 u/L
  ASPARTATE AMINOTRANSFERASE: 61.33 u/L
  BLOOD UREA NITROGEN: 14.33 mg/dL
  CHLORIDE: 96.67 MEQ/L
  CHOLESTEROL: 69.33 mg/dL
  CREATINE PHOSPHOKINASE: 136.67 u/L
  CREATININE: 0.57 mg/dL
  GLUCOSE: 209 mg/dL
  PHOSPHORUS: 12.67 mg/dL
  POTASSIUM: 6.4 MEQ/L
  SODIUM: 140.67 MEQ/L
  TOTAL BILIRUBIN: 0.4 mg/dL
  TOTAL PROTEIN: 7.1 G/DL
[4]
  BASOPHIL: 0.73%
  EOSINOPHIL: 0.3%
  ERYTHROCYTE COUNT: 7.49 x10E6/uL
  HEMATOCRIT: 47.87%
  HEMOGLOBIN: 14.97 G/DL
  LEUKOCYTE COUNT: 9.72 x10E3/uL
  LYMPHOCYTE: 82.5%
  MEAN CORPUSCULAR HEMOGLOBIN: 20.07 pg
  MEAN CORPUSCULAR HEMOGLOBIN CONCENTRATION: 31.37 G/DL
  MEAN CORPUSCULAR VOLUME: 63.9 fL
  MONOCYTE: 2%
  NEUTROPHIL: 13.77%
  PLATELET COUNT: 1482.33 x10E3/uL
  ALANINE AMINOTRANSFERASE: 38.67 u/L
  ALBUMIN: 3.83 G/DL
  ALKALINE PHOSPHATASE: 409.67 u/L
  ASPARTATE AMINOTRANSFERASE: 66.33 u/L
  BLOOD UREA NITROGEN: 13.33 mg/dL
  CHLORIDE: 107 MEQ/L
  CHOLESTEROL: 62.67 mg/dL
  CREATINE PHOSPHOKINASE: 135.67 u/L
  CREATININE: 0.67 mg/dL
  GLUCOSE: 154.33 mg/dL
  PHOSPHORUS: 12.77 mg/dL
  POTASSIUM: 7.43 MEQ/L
  SODIUM: 151.33 MEQ/L
  TOTAL BILIRUBIN: 0.5 mg/dL
  TOTAL PROTEIN: 6.93 G/DL
[5]
  BASOPHIL: 0.57%
  EOSINOPHIL: 0.37%
  ERYTHROCYTE COUNT: 6.91 x10E6/uL
  HEMATOCRIT: 44.07%
  HEMOGLOBIN: 13.83 G/DL
  LEUKOCYTE COUNT: 11.28 x10E3/uL
  LYMPHOCYTE: 85.87%
  MEAN CORPUSCULAR HEMOGLOBIN: 20.03 pg
  MEAN CORPUSCULAR HEMOGLOBIN CONCENTRATION: 31.4 G/DL
  MEAN CORPUSCULAR VOLUME: 63.73 fL
  MONOCYTE: 1.8%
  NEUTROPHIL: 10.03%
  PLATELET COUNT: 1654.67 x10E3/uL
  ALANINE AMINOTRANSFERASE: 36 u/L
  ALBUMIN: 3.73 G/DL
  ALKALINE PHOSPHATASE: 364.67 u/L
  ASPARTATE AMINOTRANSFERASE: 63.33 u/L
  BLOOD UREA NITROGEN: 14 mg/dL
  CHLORIDE: 97.33 MEQ/L
  CHOLESTEROL: 62.67 mg/dL
  CREATINE PHOSPHOKINASE: 126.33 u/L
  CREATININE: 0.5 mg/dL
  GLUCOSE: 187 mg/dL
  PHOSPHORUS: 11.57 mg/dL
  POTASSIUM: 6.97 MEQ/L
  SODIUM: 138.67 MEQ/L
  TOTAL BILIRUBIN: 0.4 mg/dL
  TOTAL PROTEIN: 6.6 G/DL
[6]
  BASOPHIL: 0.47%
  EOSINOPHIL: 0.3%
  ERYTHROCYTE COUNT: 7.11 x10E6/uL
  HEMATOCRIT: 44.93%
  HEMOGLOBIN: 13.73 G/DL
  LEUKOCYTE COUNT: 9.26 x10E3/uL
  LYMPHOCYTE: 88.1%
  MEAN CORPUSCULAR HEMOGLOBIN: 19.37 pg
  MEAN CORPUSCULAR HEMOGLOBIN CONCENTRATION: 30.6 G/DL
  MEAN CORPUSCULAR VOLUME: 63.23 fL
  MONOCYTE: 1.83%
  NEUTROPHIL: 9.33%
  PLATELET COUNT: 1288 x10E3/uL
  ALANINE AMINOTRANSFERASE: 40.33 u/L
  ALBUMIN: 3.67 G/DL
  ALKALINE PHOSPHATASE: 314 u/L
  ASPARTATE AMINOTRANSFERASE: 66 u/L
  BLOOD UREA NITROGEN: 12.33 mg/dL
  CHLORIDE: 108.33 MEQ/L
  CHOLESTEROL: 66 mg/dL
  CREATINE PHOSPHOKINASE: 136 u/L
  CREATININE: 0.63 mg/dL
  GLUCOSE: 161 mg/dL
  PHOSPHORUS: 12.37 mg/dL
  POTASSIUM: 7.3 MEQ/L
  SODIUM: 151.67 MEQ/L
  TOTAL BILIRUBIN: 0.33 mg/dL
  TOTAL PROTEIN: 6.57 G/DL
